In series [1] the test system is MDA-MB-435 breast cancer cells. Briefly: Breast cancer metastasis after primary tumor removal, mammary fatpad xenograft. The conditions noted are these: for Incidence of macroscopic lung metastases / Median range of mets: 5 weeks after tumor removal; for Incidence of macroscopic lung metastases: paclitaxel 10 mg/kg i.p. day 10, 17, 24, 2% curcumin (w/w) diet; for Mean tumor Weight: MDA-MB-435 mammary fatpad tumors in nude mice; for Mean tumor Weight / Median range of mets: paclitaxel 10 mg/kg i.p., 2% curcumin diet; for Median range of mets: number of macroscopic lung metastases. It counts as in vivo, female nude mice. As to the method:
Human breast cancer cells (MDA-MB-231 or MDA-MB-435) that express constitutively active NF-κB can be injected into the mammary fatpad of female nude mice as previously described (127). […] Two millions MDA-MB-435 breast cancer cells were injected into the mammary fatpad of female nude mice. […] The treatment continue for up to 5 weeks after tumor removal, at which time the mice were killed and the number of visible metastases and presence of recurrent tumors or metastases in other organs were recorded. The lungs were fixed in 10% buffered formalin and paraffin-embedded section were stained with H&E to determine the incidence of micrometastases, or with antibodies recognizing the p65 subunit of NF-κB and HER2/neu. […] The significance of differences in the incidence of lung metastasis in the different groups was assessed using Fisher's exact test.

The test system of a further series is MCF-7 cells. Briefly: Cell viability by the MTT method. The class given is cell-based, human. The conditions noted are these: taxol 10 μM with or without curcumin 10 μM, 72 h. (Tetrazolium dyes change colour on reduction, which living cells bring about.)
Series [2] has as its system NF-κB. Put plainly: EMSA of TNF-dependent NF-κB activation in MDA-MB 435 cells. It counts as cell-based, human. The conditions noted are these: curcumin 0 to 50 μM 4 h, then 0.1 nM TNF 30 min. On the technique in general: A gel shift assay detects complexes by their altered migration in electrophoresis.
Procedure: MCF-7 cells treated with 0 and 0.1 nM TNF was included as negative and positive control. […] The nuclear extracts were prepared and analyzed by EMSA. The specificity of NF-κB can be examined by supershift analysis using antibodies against p50 and p65 subunits of NF-κB as described (109).
Series [3] concerns BT20, SKBR3, MCF-7, T47D, and ZR75-1. The conditions noted are these: reference 63; cited from earlier work.
Series [4] relates to NF-κB. Briefly: EMSA of paclitaxel-induced NF-κB activation in MCF-7 cells. The class given is cell-based, human. To be noted: curcumin pretreatment 2 h, then taxol 30 μM 12 hrs, EMSA of nuclear extract.
Procedure: Nuclear extract was prepared and EMSA performed using 8 μg of nuclear protein. […] The nuclear extracts were prepared and analyzed by EMSA. The specificity of NF-κB can be examined by supershift analysis using antibodies against p50 and p65 subunits of NF-κB as described (109).

Consider `COc1cc(/C=C/C(=O)CC(=O)/C=C/c2ccc(O)c(OC)c2)ccc1O` [Curcumin, diferuloylmethane], for which, in series [1], the “Incidence of macroscopic lung metastases” value stood at 71%, the “Mean tumor Weight” value was determined as 0.71 ± 0.3 g and the “Median range of mets” value is listed as 5 (0–44). Moreover, the “effect on breast cancer metastases to the lung” value in series [1] (mouse xenograft model, Table 1 and FIG. 5) was “enhances the effect of paclitaxel and suppresses breast cancer metastases to the lung”. The “cytotoxic effects of paclitaxel (cell viability, MTT)” value in the series with MCF-7 cells is “enhances the cytotoxic effects of paclitaxel”. Moreover, the “TNF-dependent NF-κB activation” value in the series on NF-κB [2] is recorded as “inhibited TNF-dependent NF-κB activation”. For the same compound, in series [3], the “Growth of breast tumor cell lines” value is “completely inhibited”. In addition, the “paclitaxel-induced NF-κB induction” value in the series with NF-κB [4] is “downregulated paclitaxel-induced NF-κB induction in MCF-7 cells in a dose dependent manner”.

Turning to `CC(=O)O[C@H]1C(=O)[C@@]2(C)[C@H]([C@H](OC(=O)c3ccccc3)[C@]3(O)C[C@H](OC(=O)[C@H](O)[C@@H](NC(=O)c4ccccc4)c4ccccc4)C(C)=C1C3(C)C)[C@]1(OC(C)=O)CO[C@@H]1C[C@@H]2O` [paclitaxel, Paclitaxel], in series [1], the “Incidence of macroscopic lung metastases” value turned out to be 83%, the “Mean tumor Weight” value amounted to 0.74 ± 0.4 g and the “Median range of mets” value is reported as 20 (0–>100).

The values above are taken from patent publication US7105576B2, “Synergistic effects of nuclear transcription factor NF-κB inhibitors and anti-neoplastic agents” (priority 2002, dated 2006).
